# Laboratory results published in PubChem BioAssay (NCI).
#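 Protocol summary: plate cells (96-well), add compound at 5 concentrations, incubate 48 h, interpolate endpoints linearly. At the TGI there is no net growth.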
# Key:
# Test in all cases: NCI-60 cell line screen, 48 h
# [1] = tested on: 786-0 renal
# [2] = tested on: A498 renal
# [3] = tested on: A549 NSCLC
# [4] = tested on: ACHN renal
# [5] = tested on: BT-549 breast
# [6] = tested on: CAKI-1 renal
# [7] = tested on: CCRF-CEM leukemia
# [8] = tested on: COLO 205 colon
# [9] = tested on: DU-145 prostate
# [10] = tested on: EKVX NSCLC
# [11] = tested on: HCC-2998 colon
# [12] = tested on: HCT-116 colon
# [13] = tested on: HCT-15 colon
# [14] = tested on: HL-60(TB) leukemia
# [15] = tested on: HOP-62 NSCLC
# [16] = tested on: HS 578T breast
# [17] = tested on: HT29 colon
# [18] = tested on: K-562 leukemia
# [19] = tested on: KM12 colon
# [20] = tested on: M14 melanoma
# [21] = tested on: MALME-3M melanoma
# [22] = tested on: MCF7 breast
# [23] = tested on: MDA-MB-231 breast
# [24] = tested on: MDA-MB-435
# [25] = tested on: MDA-N
# [26] = tested on: MOLT-4 leukemia
# [27] = tested on: NCI-H226 lung
# [28] = tested on: NCI-H23 lung
# [29] = tested on: NCI-H460 lung
# [30] = tested on: NCI/ADR-RES ovarian
# [31] = tested on: OVCAR-3 ovarian
# [32] = tested on: OVCAR-4 ovarian
# [33] = tested on: OVCAR-5 ovarian
# [34] = tested on: PC-3 prostate
# [35] = tested on: RPMI-8226 leukemia
# [36] = tested on: RXF 393 renal
# [37] = tested on: SF-268 CNS
# [38] = tested on: SF-295 CNS
# [39] = tested on: SF-539 CNS
# [40] = tested on: SK-MEL-2 melanoma
# [41] = tested on: SK-MEL-28 melanoma
# [42] = tested on: SK-MEL-5 melanoma
# [43] = tested on: SK-OV-3 ovarian
# [44] = tested on: SN12C renal
# [45] = tested on: SNB-19 CNS
# [46] = tested on: SNB-75 CNS
# [47] = tested on: SR leukemia
# [48] = tested on: SW-620 colon
# [49] = tested on: T-47D breast
# [50] = tested on: TK-10 renal
# [51] = tested on: U251 CNS
# [52] = tested on: UACC-257 melanoma
# [53] = tested on: UACC-62 melanoma
# [54] = tested on: UO-31 renal
# [55] = tested on: HOP-92 NSCLC
# [56] = tested on: IGROV1 ovarian
# [57] = tested on: LOX IMVI melanoma
# [58] = tested on: NCI-H522 lung
# [59] = tested on: OVCAR-8 ovarian
smiles,measurement,setting,value
N=c1oc2c(Cl)cc(Cl)cc2cc1C(=O)Nc1ccccn1,TGI,[1],> 100 µM
same,TGI,[2],> 100 µM
same,TGI,[3],> 100 µM
same,TGI,[4],64.4 µM
same,TGI,[5],> 100 µM
same,TGI,[6],> 100 µM
same,TGI,[7],> 100 µM
same,TGI,[8],> 100 µM
same,TGI,[9],> 100 µM
same,TGI,[10],> 100 µM
same,TGI,[11],> 100 µM
same,TGI,[12],> 100 µM
same,TGI,[13],> 100 µM
same,TGI,[14],> 100 µM
same,TGI,[15],> 100 µM
same,TGI,[16],48.4 µM
same,TGI,[17],> 100 µM
same,TGI,[18],> 100 µM
same,TGI,[19],> 100 µM
same,TGI,[20],> 100 µM
same,TGI,[21],> 100 µM
same,TGI,[22],> 100 µM
same,TGI,[23],> 100 µM
same,TGI,[24],> 100 µM
same,TGI,[25],> 100 µM
same,TGI,[26],> 100 µM
same,TGI,[27],> 100 µM
same,TGI,[28],> 100 µM
same,TGI,[29],> 100 µM
same,TGI,[30],> 100 µM
same,TGI,[31],57.5 µM
same,TGI,[32],> 100 µM
same,TGI,[33],> 100 µM
same,TGI,[34],> 100 µM
same,TGI,[35],60.8 µM
same,TGI,[36],47.7 µM
same,TGI,[37],> 100 µM
same,TGI,[38],> 100 µM
same,TGI,[39],> 100 µM
same,TGI,[40],> 100 µM
same,TGI,[41],> 100 µM
same,TGI,[42],> 100 µM
same,TGI,[43],> 100 µM
same,TGI,[44],> 100 µM
same,TGI,[45],> 100 µM
same,TGI,[46],46.1 µM
same,TGI,[47],65.9 µM
same,TGI,[48],> 100 µM
same,TGI,[49],> 100 µM
same,TGI,[50],> 100 µM
same,TGI,[51],> 100 µM
same,TGI,[52],> 100 µM
same,TGI,[53],61.4 µM
same,TGI,[54],> 100 µM
COC(=O)c1scc(N)c1-n1ccc(=O)[nH]c1=O,TGI,[1],> 100 µM
same,TGI,[2],> 100 µM
same,TGI,[3],> 100 µM
same,TGI,[4],> 100 µM
same,TGI,[5],> 100 µM
same,TGI,[6],> 100 µM
same,TGI,[7],> 100 µM
same,TGI,[8],> 100 µM
same,TGI,[9],> 100 µM
same,TGI,[10],> 100 µM
same,TGI,[11],> 100 µM
same,TGI,[12],> 100 µM
same,TGI,[13],> 100 µM
same,TGI,[14],> 100 µM
same,TGI,[55],> 100 µM
same,TGI,[16],> 100 µM
same,TGI,[17],> 100 µM
same,TGI,[56],> 100 µM
same,TGI,[18],> 100 µM
same,TGI,[19],> 100 µM
same,TGI,[57],> 100 µM
same,TGI,[20],> 100 µM
same,TGI,[21],> 100 µM
same,TGI,[22],> 100 µM
same,TGI,[23],> 100 µM
same,TGI,[24],> 100 µM
same,TGI,[25],> 100 µM
same,TGI,[26],> 100 µM
same,TGI,[27],> 100 µM
same,TGI,[28],> 100 µM
same,TGI,[29],> 100 µM
same,TGI,[58],> 100 µM
same,TGI,[30],> 100 µM
same,TGI,[32],> 100 µM
same,TGI,[33],> 100 µM
same,TGI,[59],> 100 µM
same,TGI,[34],> 100 µM
same,TGI,[35],> 100 µM
same,TGI,[36],> 100 µM
same,TGI,[37],> 100 µM
same,TGI,[39],> 100 µM
same,TGI,[40],> 100 µM
same,TGI,[41],> 100 µM
same,TGI,[42],> 100 µM
same,TGI,[44],> 100 µM
same,TGI,[45],> 100 µM
same,TGI,[46],> 100 µM
same,TGI,[47],> 100 µM
same,TGI,[48],> 100 µM
same,TGI,[49],> 100 µM
same,TGI,[50],> 100 µM
same,TGI,[51],> 100 µM
same,TGI,[52],> 100 µM
same,TGI,[53],> 100 µM
same,TGI,[54],> 100 µM
COC(=O)C1CCC(=O)N1C(c1ccc2c(c1)OCO2)c1ccc2c(c1)OCO2 (centres undefined),TGI,[1],> 100 µM
same,TGI,[2],> 100 µM
same,TGI,[3],> 100 µM
same,TGI,[4],> 100 µM
same,TGI,[5],> 100 µM
same,TGI,[6],> 100 µM
same,TGI,[7],> 100 µM
same,TGI,[8],> 100 µM
same,TGI,[9],> 100 µM
same,TGI,[10],> 100 µM
same,TGI,[11],> 100 µM
same,TGI,[12],> 100 µM
same,TGI,[13],> 100 µM
same,TGI,[14],> 100 µM
same,TGI,[15],> 100 µM
same,TGI,[55],> 100 µM
same,TGI,[16],> 100 µM
same,TGI,[17],> 100 µM
same,TGI,[56],> 100 µM
same,TGI,[18],> 100 µM
same,TGI,[19],> 100 µM
same,TGI,[57],> 100 µM
same,TGI,[20],> 100 µM
same,TGI,[21],> 100 µM
same,TGI,[22],> 100 µM
same,TGI,[23],> 100 µM
same,TGI,[24],> 100 µM
same,TGI,[25],> 100 µM
same,TGI,[26],> 100 µM
same,TGI,[27],> 100 µM
same,TGI,[28],> 100 µM
same,TGI,[29],> 100 µM
same,TGI,[58],> 100 µM
same,TGI,[30],> 100 µM
same,TGI,[31],> 100 µM
same,TGI,[32],> 100 µM
same,TGI,[33],> 100 µM
same,TGI,[59],> 100 µM
same,TGI,[34],> 100 µM
same,TGI,[35],> 100 µM
same,TGI,[37],> 100 µM
same,TGI,[38],> 100 µM
same,TGI,[39],> 100 µM
same,TGI,[40],> 100 µM
same,TGI,[41],> 100 µM
same,TGI,[42],> 100 µM
same,TGI,[43],> 100 µM
same,TGI,[44],> 100 µM
same,TGI,[45],> 100 µM
same,TGI,[46],> 100 µM
same,TGI,[47],> 100 µM
same,TGI,[48],> 100 µM
same,TGI,[49],> 100 µM
same,TGI,[50],> 100 µM
same,TGI,[51],> 100 µM
same,TGI,[52],> 100 µM
same,TGI,[53],> 100 µM
same,TGI,[54],> 100 µM
CN1CCCCC1CCN1c2ccccc2Sc2ccc(S(C)=O)cc21 (centres undefined),TGI,[1],> 100 µM
same,TGI,[2],> 100 µM
same,TGI,[3],> 100 µM
same,TGI,[4],> 100 µM
same,TGI,[5],> 100 µM
same,TGI,[6],> 100 µM
same,TGI,[7],> 100 µM
same,TGI,[8],> 100 µM
same,TGI,[9],> 100 µM
same,TGI,[10],> 100 µM
same,TGI,[12],> 100 µM
same,TGI,[13],> 100 µM
same,TGI,[14],> 100 µM
same,TGI,[15],> 100 µM
same,TGI,[55],> 100 µM
same,TGI,[16],> 100 µM
same,TGI,[17],> 100 µM
same,TGI,[56],> 100 µM
same,TGI,[18],> 100 µM
same,TGI,[19],> 100 µM
same,TGI,[57],> 100 µM
same,TGI,[20],> 100 µM
same,TGI,[21],> 100 µM
same,TGI,[22],> 100 µM
same,TGI,[23],> 100 µM
same,TGI,[24],> 100 µM
same,TGI,[25],> 100 µM
same,TGI,[26],> 100 µM
same,TGI,[27],> 100 µM
same,TGI,[28],> 100 µM
same,TGI,[29],> 100 µM
same,TGI,[58],> 100 µM
same,TGI,[30],> 100 µM
same,TGI,[31],> 100 µM
same,TGI,[32],> 100 µM
same,TGI,[33],> 100 µM
same,TGI,[59],> 100 µM
same,TGI,[34],> 100 µM
same,TGI,[35],> 100 µM
same,TGI,[36],> 100 µM
same,TGI,[37],> 100 µM
same,TGI,[38],> 100 µM
same,TGI,[39],> 100 µM
same,TGI,[40],> 100 µM
same,TGI,[41],> 100 µM
same,TGI,[42],> 100 µM
same,TGI,[43],> 100 µM
same,TGI,[44],> 100 µM
same,TGI,[45],> 100 µM
same,TGI,[46],> 100 µM
same,TGI,[47],> 100 µM
same,TGI,[48],> 100 µM
same,TGI,[49],> 100 µM
same,TGI,[50],> 100 µM
same,TGI,[51],> 100 µM
same,TGI,[52],> 100 µM
same,TGI,[53],> 100 µM
